These are literature values, as cited in patent US20090047245A1, “Prognostic chronic hepatitis C biomarkers” (priority 2007, published 2009).

This data set concerns HCV.

Consider `NC(=O)c1ncn([C@@H]2O[C@H](CO)[C@@H](O)[C@H]2O)n1` [ribavirin], for which, where the note is “ribavirin added to interferon”, the “increase of the sustained response rate” value is recorded as “two- to three-fold”. Further, under “ribavirin by itself”, the “effect on HCV” value is recorded as “little effect on HCV”.
